According to patent publication US9237747B2, “Herbicidal compositions comprising 4-amino-3-chloro-5-fluoro-6-(4-chloro-2-fluoro-3-methoxyphenyl) pyridine-2-carboxylic acid or a derivative thereof and insecticides” (priority 2013, dated 2016):
Structures can show the parent of a compound that is named as a salt. Where two headings read alike, the source gives them in different places.

Tests used:
ECHCG = type: in vivo, Echinochloa crus-galli
Protocol: (§1) Seeds or nutlets of the desired test plant species were planted in a soil matrix prepared by mixing a loam or sandy loam soil (e.g., 28.6 percent silt, 18.8 percent clay, and 52.6 percent sand, with a pH of about 5.8 and an organic matter content of about 1.8 percent) and calcareous grit in an 80 to 20 ratio. The soil matrix was contained in plastic pots with a volume of 1 quart and a surface area of 83.6 square centimeters (cm^2). […] The plants were grown for 8-22 days in a greenhouse with an approximate 14 hour (h) photoperiod which was maintained at about 29° C. during the day and 26° C. during the night. Nutrients (Peters Excel® 15-5-15 5-Ca 2-Mg and iron chelate) were applied in the irrigation solution as needed and water was added on a regular basis. Supplemental lighting was provided with overhead metal halide 1000-Watt lamps as necessary. The plants were employed for testing when they reached the first through fourth true leaf stage.
(§2) Treatments consisted of the acid or esters of 4-amino-3-chloro-6-(4-chloro-2-fluoro-3-methoxyphenyl)-5-fluoropyridine-2-carboxylic acid (Compound A), each formulated as an SC (suspension concentrate), and various insecticidal components alone and in combination. Forms of compound A were applied on an acid equivalent basis.
(§3) For treatments comprised of formulated compounds, measured amounts of compounds were placed individually in 25 mL glass vials and diluted in a volume of 1.25% volume per volume (v/v) Agri-Dex® crop oil concentrate to obtain 12× stock solutions. […] Application solutions were prepared by adding an appropriate amount of each stock solution (e.g., 1 mL) and diluted to the appropriate final concentrations with the addition of […] of an aqueous mixture of 1.25% (v/v) crop oil concentrate so that the final spray solutions contained 1.25+/−0.05% (v/v) crop oil concentrate.
(§4) As required, additional water and/or 97:3 v/v acetone/DMSO was added to individual application solutions so that the final acetone and DMSO concentrations of the application solutions being compared were 8.1% and 0.25%, respectively.
(§5) All stock solutions and applications solutions were visually inspected for compound compatibility prior to application. Spray solutions were applied to the plant material with an overhead Mandel track sprayer equipped with 8002E nozzles calibrated to deliver 187 L/ha over an application area of 0.503 square meters (m^2) at a spray height of 18 to 20 inches (46 to 50 cm) above average plant canopy height. Control plants were sprayed in the same manner with the solvent blank.
(§6) The treated plants and control plants were placed in a greenhouse as described above and watered by sub-irrigation to prevent wash-off of the test compounds. After approximately 3 weeks, the condition of the test plants as compared to that of the untreated plants was determined visually and scored on a scale of 0 to 100 percent where 0 corresponds to no injury or growth inhibition and 100 corresponds to complete kill.
(§7) Colby's equation was used to determine the herbicidal effects expected from the mixtures (Colby, S. R. Calculation of the synergistic and antagonistic response of herbicide combinations. Weeds 1967, 15, 20-22.).
(§8) The following equation was used to calculate the expected activity of mixtures containing two active ingredients, A and B: Expected=A+B−(A×B/100)

IPOHE = type: in vivo, Ipomoea hederacea
Protocol: as §1, §2, §3, §4, §5, §6, §7, §8

BRAPP = assay: Postemergence foliar-applied weed control, direct-seeded rice (greenhouse); type: in vivo, Brachiaria platyphylla
Description: (§9) Seeds or nutlets of the desired test plant species were planted in a soil matrix prepared by mixing a loam or sandy loam soil (e.g., 28.6 percent silt, 18.8 percent clay, and 52.6 percent sand, with a pH of about 5.8 and an organic matter content of about 1.8 percent) and calcareous grit in an 80 to 20 ratio. The soil matrix was contained in plastic pots with a volume of 1 quart and a surface area of 83.6 square centimeters (cm^2). When required to ensure good germination and healthy plants, a fungicide treatment and/or other chemical or physical treatment was applied. The plants were grown for 8-22 days in a greenhouse with an approximate 14 hour (h) photoperiod which was maintained at about 29° C. during the day and 26° C. during the night. Nutrients (Peters Excel® 15-5-15 5-Ca 2-Mg and iron chelate) were applied in the irrigation solution as needed and water was added on a regular basis. Supplemental lighting was provided with overhead metal halide 1000-Watt lamps as necessary. The plants were employed for testing when they reached the first through fourth true leaf stage.
as §2
(§10) Treatment requirements were calculated based upon the rates being tested, the concentration of active ingredient or acid equivalent in the formulation, and a 12 milliliter (mL) application volume at a rate of 187 liters per hectare (L/ha).
as §3, §4, §5, §6, §7, §8

DIGSA = type: in vivo, Digitaria sanguinalis
Protocol: as §1, §2, §3, §4, §5, §6, §7, §8

ECHCO = assay: Postemergence foliar-applied weed control, direct-seeded rice (greenhouse); type: in vivo, Echinochloa colonum
Protocol: as §1, §2, §3, §4, §5, §6, §7, §8

LEFCH = assay: whole plant or invertebrate; type: in vivo, Leptochloa chinensis
Protocol: as §1, §2, §3, §4, §5, §6, §7, §8

LEFFA = assay: Postemergence foliar-applied weed control, direct-seeded rice (greenhouse); type: in vivo, Leptochloa fascicularis
Description: as §9, §2, §10, §3, §4, §5, §6, §7, §8

CN(C)C(CSC(N)=O)CSC(N)=O [Cartap Hydrochloride, S,S′-(2-dimethylaminotrimethylene)bis(thiocarbamate), reference compound]
Visual Weed Control (%) - 22 DAA ECHCG Obs (ECHCG; 250 g ai/ha alone): 0% | Visual Weed Control (%) - 22 DAA ECHCG Obs (ECHCG; 500 g ai/ha alone): 0% | Visual Weed Control (%) - 22 DAA IPOHE Obs (IPOHE; 250 g ai/ha alone): 10% | Visual Weed Control (%) - 22 DAA IPOHE Obs (IPOHE; 500 g ai/ha alone): 0%

CCOP(=S)(OCC)Oc1nc(Cl)c(Cl)cc1Cl [Chlorpyrifos, O,O-diethyl O-3,5,6-trichloro-2-pyridyl phosphorothioate]
Visual Weed Control (%) - 20 DAA BRAPP Obs (BRAPP; 180 g ai/ha alone): 0% | Visual Weed Control (%) - 20 DAA BRAPP Obs (BRAPP; 360 g ai/ha alone): 0% | Visual Weed Control (%) - 20 DAA BRAPP Obs (BRAPP; 720 g ai/ha alone): 0% | Visual Weed Control (%) - 20 DAA DIGSA Obs (DIGSA; 180 g ai/ha alone): 0% | Visual Weed Control (%) - 22 DAA DIGSA Obs (DIGSA; 180 g ai/ha alone): 0% | Visual Weed Control (%) - 20 DAA DIGSA Obs (DIGSA; 360 g ai/ha alone): 0% | Visual Weed Control (%) - 22 DAA DIGSA Obs (DIGSA; 360 g ai/ha alone): 0% | Visual Weed Control (%) - 20 DAA DIGSA Obs (DIGSA; 500 g ai/ha alone): 0% | Visual Weed Control (%) - 20 DAA DIGSA Obs (DIGSA; 720 g ai/ha alone): 0% | Visual Weed Control (%) - 22 DAA DIGSA Obs (DIGSA; 720 g ai/ha alone): 0% | Visual Weed Control (%) - 20 DAA ECHCG Obs (ECHCG; 180 g ai/ha alone): 0% | Visual Weed Control (%) - 20 DAA ECHCG Obs (ECHCG; 360 g ai/ha alone): 0% | Visual Weed Control (%) - 20 DAA ECHCG Obs (ECHCG; 720 g ai/ha alone): 0% | Visual Weed Control (%) - 20 DAA ECHCO Obs (ECHCO; 180 g ai/ha alone): 0% | Visual Weed Control (%) - 20 DAA ECHCO Obs (ECHCO; 360 g ai/ha alone): 0% | Visual Weed Control (%) - 20 DAA ECHCO Obs (ECHCO; 720 g ai/ha alone): 0% | Visual Weed Control (%) - 20 DAA IPOHE Obs (IPOHE; 180 g ai/ha alone): 10% | Visual Weed Control (%) - 20 DAA IPOHE Obs (IPOHE; 360 g ai/ha alone): 10% | Visual Weed Control (%) - 20 DAA IPOHE Obs (IPOHE; 720 g ai/ha alone): 0% | Visual Weed Control (%) - 20 DAA LEFCH Obs (LEFCH; 180 g ai/ha alone): 0% | Visual Weed Control (%) - 20 DAA LEFCH Obs (LEFCH; 360 g ai/ha alone): 0% | Visual Weed Control (%) - 20 DAA LEFCH Obs (LEFCH; 500 g ai/ha alone): 0% | Visual Weed Control (%) - 20 DAA LEFCH Obs (LEFCH; 720 g ai/ha alone): 0% | pest or weed control at 720 g/ha (LEFCH; Dinebra chinensis, post-emergence, 528 h, 720 g ai/ha alone, read-out: Visual Weed Control (%) - 22 DAA LEFCH Obs): 5% | Visual Weed Control (%) - 22 DAA LEFFA Obs (LEFFA; 180 g ai/ha alone): 0% | Visual Weed Control (%) - 22 DAA LEFFA Obs (LEFFA; 360 g ai/ha alone): 0% | Visual Weed Control (%) - 22 DAA LEFFA Obs (LEFFA; 720 g ai/ha alone): 0%

N#Cc1nn(-c2c(Cl)cc(C(F)(F)F)cc2Cl)c(N)c1[S+]([O-])C(F)(F)F [Fipronil, 5-amino-[2,6-dichloro-4-(trifluoromethyl)phenyl]-4-[(1R,S)-(trifluoromethyl)sulfinyl]-1H-pyrazole-3-carbonitrile, reference compound]
Visual Weed Control (%) - 20 DAA BRAPP Obs (BRAPP; 50 g ai/ha alone): 0% | Visual Weed Control (%) - 20 DAA ECHCG Obs (ECHCG; 50 g ai/ha alone): 0%

COP(N)(=O)SC (stereo not drawn) [Methamidophos, O,S-dimethyl phosphoramidothioate, reference compound]
Visual Weed Control (%) - 19 DAA ECHCO Obs (ECHCO; 112 g ai/ha alone): 0% | Visual Weed Control (%) - 19 DAA ECHCO Obs (ECHCO; 224 g ai/ha alone): 0% | Visual Weed Control (%) - 19 DAA IPOHE Obs (IPOHE; 112 g ai/ha alone): 0% | Visual Weed Control (%) - 19 DAA IPOHE Obs (IPOHE; 224 g ai/ha alone): 0%

spinetoram
Visual Weed Control (%) - 19 DAA ECHCO Obs (ECHCO; 30 g ai/ha alone): 0% | Visual Weed Control (%) - 19 DAA ECHCO Obs (ECHCO; 60 g ai/ha alone): 0% | Visual Weed Control (%) - 19 DAA ECHCO Obs (ECHCO; 120 g ai/ha alone): 0% | Visual Weed Control (%) - 19 DAA LEFCH Obs (LEFCH; 30 g ai/ha alone): 0% | Visual Weed Control (%) - 19 DAA LEFCH Obs (LEFCH; 60 g ai/ha alone): 0% | Visual Weed Control (%) - 19 DAA LEFCH Obs (LEFCH; 120 g ai/ha alone): 0%

spinosad [reference compound]
Visual Weed Control (%) - 21 DAA IPOHE Obs (IPOHE; 70 g ai/ha alone): 0% | Visual Weed Control (%) - 21 DAA IPOHE Obs (IPOHE; 140 g ai/ha alone): 0% | Visual Weed Control (%) - 21 DAA IPOHE Obs (IPOHE; 280 g ai/ha alone): 0% | Visual Weed Control (%) - 21 DAA LEFCH Obs (LEFCH; 140 g ai/ha alone): 0% | Visual Weed Control (%) - 21 DAA LEFCH Obs (LEFCH; 280 g ai/ha alone): 0%
